The test system of series [1] is STAT6. The series can be described thus: Screening compounds inhibiting promotion of STAT6 activity (STAT6 reporter activity). The class given is cell-based. Conditions: 20 μM, mouse IL-4 1 ng/ml, 6 h; for inhibition of expression of the STAT6 reporter gene, control plasmid well: NIH3T3 cells with control plasmid pcDNA3.1 (+); for inhibition of expression of the STAT6 reporter gene (relative luciferase activity): NIH3T3 cells with plasmid for STAT6 activation-promoting protein of SEQ ID NO: 3, 17, 19, 218, 432 or 472, or nucleotide of SEQ ID NO: 64, FIGS. 1 to 7. The method, then:
NIH3T3 cells were seeded on 10% FBS containing IMDM medium in a 96-well cell culture plate to a final cell density of 1×10^4 cells/100 μl/well, and cultured for 24 hours at 37° C. in the presence of 5% CO2. Then, 30 ng of the plasmid containing the nucleotide encoding the STAT6 activation-promoting protein of SEQ ID NO: 3, 17, 19, 218, 432 or 472, or the nucleotide of SEQ ID NO: 64, and 100 ng of the luciferase reporter plasmid having the STAT6 response sequence were cotransfected into the cells in a well using FuGENE 6. […] After 30 min of culture at 37° C., followed by 6 hours of culture with addition of mouse IL-4 to a final concentration of 1 ng/ml, the reporter activity was measured using PIKKA GENE LT2.0.

For series [2], the system named is STAT6. The series can be described thus: Screening of full-length cDNA clones for promotion of STAT6 activation (luciferase reporter N4×8-luc). In kind it is cell-based. Conditions: NIH3T3 cells cotransfected with N4×8-luc reporter and cDNA plasmid; 48 h culture, then mouse IL-4 0.5 ng/ml for 6 h. The gist of the method: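 NIH3T3 cells cotransfected with STAT6-responsive N4×8-luc reporter (100 ng) and full-length cDNA, cultured 48 h, then given mouse IL-4 at 0.5 ng/ml final for 6 h. Luciferase activity compared with reporter plus null-vector control.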

Regarding `N#C/C(=C/c1ccc(O)c(O)c1)C(=O)NCc1ccccc1` [AG490], in series [1], the “inhibition of expression of the STAT6 reporter gene, control plasmid well” value is “no expression was inhibited at all” and the “inhibition of expression of the STAT6 reporter gene (relative luciferase activity)” value is “inhibited”.

On to `N#CC(C#N)=Cc1ccc(O)c(O)c1` [AG18], for which, in series [1], the “inhibition of expression of the STAT6 reporter gene, control plasmid well” value was “no expression was inhibited at all” and the “inhibition of expression of the STAT6 reporter gene (relative luciferase activity)” value is reported as “inhibited”.

B1: 481 (nucleic acid, listed as Homo sapiens)
chain: GAAAGAGCCGAGTGGGCTCGAGGCCGACGCGACCATCGTTTGTCGACGCCGCTGCCACCGCCTGCCTGAGAGAAGTCGTCGCGGCCGACCCCGTCGCCTCCGCCGGCTACCATGTCCGCCCAGGCGCAGATGCGGGCCCTGCTGGACCAGCTCATGGGCACGGCTCGGGACGGAGACGAAACCAGACAGAGGGTCAAGTTTACAGATGACCGTGTCTGCAAGAGTCACCTTCTGGACTGCTGCCCCCATGACATCCTGGCTGGGACGCGCATGGATTTAGGAGAATGTACCAAAATCCACGACTTGGCCCTCCGAGCAGATTATGAGATTGCAAGTAAAGAAAGAGACCTGTTTTTTGAATTAGATGCAATGGATCACTTGGAGTCCTTTATTGCTGAATGTGATCGGAGAACTGAGCTCGCCAAGAAGCGGCTGGCAGAAACACAGGAGGAAATCAGTGCGGAAGTTTCTGCAAAGGCAGAAAAAGTACATGAGTTAAATGAAGAAATAGGAAAACTCCTTGCTAAAGCCGAACAGCTAGGGGCTGAAGGTAATGTGGATGAATCCCAGAAGATTCTTATGGAAGTGGAAAAAGTTCGTGCGAAGAAAAAAGAAGCTGAGGAAGAATACAGAAATTCCATGCCTGCATCCAGTTTTCAGCAGCAAAAGCTGCGTGTCTGCGAGGTCTGTTCAGCCTACCTTGGTCTCCATGACAATGACCGTCGCCTGGCAGACCACTTCGGTGGCAAGTTACACTTGGGGTTCATTCAGATCCGAGAGAAGCTTGATCAGTTGAGGAAAACTGTCGCTGAAAAGCAGGAGAAGAGAAATCAGGATCGCTTGAGGAGGAGAGAGGAGAGGGAACGGGAGGAGCGTCTGAGCAGGAGGTCGGGATCAAGAACCAGAGATCGCAGGAGGTCACGCTCCCGGGATCGGCGTCGGAGGCGGTCAAGATCTACCTCCCGAGAGCGACGGAAATTGTCCCGGTCCCGGTCCCGAGATAGACATCGGCGCCACCGCAGCCGTTCCCGGAGCCACAGCCGGGGACATCGTCGGGCTTCCCGGGACCGAAGTGCGAAATACAAGTTCTCCAGAGAGCGGGCATCCAGAGAGGAGTCCTGGGAGAGCGGGCGGAGCGAGCGAGGGCCCCCGGACTGGAGGCTTGAGAGCTCCAACGGGAAGATGGCTTCACGGAGGTCAGAAGAGAAGGAGGCCGGCGAGATCTGAACCCGTCTCCCGGGTGCTGTAAATAGTCTGATAAACGTTCACACAGTCTAAAATTACCCTTTATATTTGCTGAATACAACTCATCTTTTGTAGTTTAAAATTTCTATTGTTTTGGAGCTAGCTGTGAGTTTCTAGAAGTGTACAGAGTTGCTCCTGTGTTCCCGGGTCATGTTGAGTAGGAATAAATAAATCTGATGCTGCCTCCTGAGGCTGCGGGGGGTTT
modifications: CDS (112)..(1224)
With B1, in series [2], the “Activity = (luciferase activity of the gene of each SEQ ID NO:)/(luciferase activity of pME18S-FL3)” value amounted to 6.4.

Values taken from patent US20030092616A1, “STAT6 activation gene” (priority 2001, published 2003).
